From USRE38723E1, “Haloalkyl derivatives of reporter molecules used to analyze metabolic activity in cells” (Molecular Probes, Inc., priority 1991, dated 2005)

Assays:
[1] = test system: lacZ positive CRE BAG 2 cells; test: Cellular retention after loading by hypoosmotic shock (Example 12); format: cell-based
Protocol: 5-Chloromethylfluorescein di-β-D-galactoside (CMFDG) (Example 1) is dissolved in DMSO to get 20 mM stock solution. A 40 mM stock solution offluorescein di-β-D-galaetoside (FDG) (Molecular Probes) is also made in DMSO as a control. The stock solutions are kept sealed in brown reagent bottles and stored at −20° C.
• (A) FCS-PBS Solution: Phosphate buffered saline (GIBCO), 4% fetal calf serum, 10 mM HEPES, pH 7.2 • (B) Staining Solution: CMFDG: 200 μL of stock solution is diluted with distilled water to 4 mL to get a 1 mM staining solution. FDG: 400 μL of stock solution is diluted to 4 mL with distilled water to get a 4 mM staining solution. 4. Staining and Examination of Cells:
Cells grown on coverslips are transferred to a Petri dish containing 3 mL of FCS-PBS solution and then incubated at 37° C. for 10 minutes. 3 mL of prewarmed (37° C.) 1 mM CMFDG staining solution is added to give a final dye concentration of 0.5 mM The solutions are mixed rapidly. The cells are incubated at 37° C. for exactly one minute. To stop the loading, the cells are transferred to a 1.8 mL of ice-cold FCS-PBS solution. FDG is loaded into cells by using the same procedure except that the final dye concentrations is 2 mM. Cells are then incubated under normal culture conditions to examine the dye retention. Cells are examined without washing at the desired time for their fluorescence under a Zeiss microscope equipped with a FITC filter set (EX 485 nm/EM 530 nm).

[2] = test system: lacZ-positive yeast strains EG123 and HR125-5d; test: Measurement of lacZ marker gene expression in transformed yeast (Example 13); format: cell-based, Saccharomyces cerevisiae
Protocol: Because the CMFDG substrate generates a product that is so well retained by cells (Examples 11 and 12), it can be used for quantitative measurements of lacZ expression. • 1. A series of lacZ gene containing plasmids, each with a modified yeast promoter are used. When transferred into the appropriate strains of Saccharomyces cerevisiae, each plasmid confers a different level of lacZ gene expression. Yeast strains EG123 and HR125-5d, transformed with these plasmids, are grown in special minimal medium for plasmid maintenance and, after reaching the appropriate level of growth, are assayed for lacZ gene expression as measured by β-galactosidase activity. • 2. The β-galactosidase activity of one aliquot of these transformed yeast cells is measured using o-nitrophenyl-β-D-galactopyranoside (ONPG). • 3. Another aliquot of yeast cells is loaded with the fluorogenic substrate CMFDG as indicated in Example 12. Following washing to remove any dye that has leaked from the cells, the fluorescence intensity of the remaining cells as measured in a CytoFluor 2300 fluorescence plate reader (Millipore) can be measured over time. […] The amount of increase over time can be calculated from the slope of the plotted increase using linear regression. Each yeast strain accumulates fluorescent product at a characteristic rate, as reflected in the differences in the slopes of the various lines. • 4. […]

NIH 3T3 cells = test: Cytotoxicity (loss of fluorescence) assay using CMFDG (Example 15); format: cell-based; details: 10 μM for 30 minutes at 37° C.
Protocol: 1) Reagents 5-Chloromethylfluorescein di-β-D-galactopyranoside (CMFDG) (Example 1) and 7-(β-D-galactopyranosyloxy)-4-chloromethylcoumarin (Cl-MUG) (Example 3) are separately dissolved at 10 mM anhydrous DMSO and stored frozen at −20° C. until needed. Saponin is dissolved in PBS at a concentration of 0.04%.
NIH/3T3 cells (lacZ negative) and CRE BAG 2 cells (3T3 cells transformed with a retrovirus containing latZ gene) are employed for cellular assays. Both cell lines can be obtained from American Type Culture Collection Co., Rockville, Md. The cells are grown in a humidified atmosphere of 5% CO2 in Dulbecco's modified Eagle's medium supplemented with 10% calf serum, 50 μg/mL gentamicin, 300 μg/mL L-glutamine and 10 mM HEPES pH7.4.
The experiment is most conveniently performed in a CytoFluor™ 2300 fluorescence plate reader (Millipore) but can be performed qualitatively on a microscope slide or quantitatively in a flow cytometery, or in any system that permits washing of the cells following addition of the cytotoxic agent. […] Fluorescence of each well is determined using a 485 nm excitation filter, a 530 nm emission filter and sensitivity setting 1. […] Loss of fluorescence from the sample is correlated with the loss of integrity of the membrane and thus the cytotoxicity of the reagent.

[3] = test system: NIH/3T3 cells and CRE BAG 2 cells; details: 500 μM staining medium for 24 hours
From the text: (§1) The same cell lines as used in Example 11 are used for these experiments.

[4] = test system: NIH/3T3 cells and CRE BAG 2 cells; test: Cytotoxicity of CMFDG staining medium (Example 12)
From the text: as §1

## O=C1OC2(c3ccc(O[C@@H]4O[C@H](CO)[C@H](O)[C@H](O)[C@H]4O)cc3Oc3cc(O[C@@H]4O[C@H](CO)[C@H](O)[C@H](O)[C@H]4O)ccc32)c2ccc(CCl)cc21 [CMFDG, 5-chloromethylfluorescein di-β-D-galactopyranoside]
[1]; 0.5 mM CMFDG versus 2 mM FDG, hypoosmotic shock loading
  staining of cells after 10 minutes incubation: very well stained and much brighter
[1]; after incubation for 4 hours, 0.5 mM
  stained cells apparently as bright as after 10 minutes incubation: more than 70%
[2]; each lacZ-positive yeast strain, CytoFluor 2300 plate reader
  fluorescence plotted over time: linear increase in fluorescence
[2]; transformed yeast cells
  fluorescence intensity over time versus level of lacZ expression (ONPG assay): correlates well
NIH 3T3 cells
  fluorescence of loaded cells: brightly fluorescent
[3]
  cell morphology: morphologically normal
  population doubling time versus control: same population doubling time
[4]
  cytotoxicity: no cytotoxicity
